Consider 13 compounds from patent US12600725B2 (Memorial Sloan-Kettering Cancer Center, priority 2013, dated 2026).

Test [1] concerns the target T1, Hsp90α (Homo sapiens, UniProt P07900). The conditions noted are these: read-out: Hsp90α; FP competition, 6 nM Cy3B-GM, 10 nM protein, 4° C. for 24 h.
Test [2] addresses T2, Grp94 (Canis lupus familiaris, UniProt P41148). The conditions noted are these: read-out: Grp94; FP competition, 6 nM Cy3B-GM, 10 nM protein, 4° C. for 24 h.
Test [3] concerns the target Hsp90β (Homo sapiens, UniProt P08238).
The target of test [4] is T1, Hsp90α. The experiment in a line: biochemical. The conditions noted are these: FP competition, 6 nM Cy3B-GM, 10 nM protein, 4° C. for 24 h.
Test [5] addresses T3, Trap-1 (Homo sapiens, UniProt Q12931).
T3 sequence (Q12931 60-704): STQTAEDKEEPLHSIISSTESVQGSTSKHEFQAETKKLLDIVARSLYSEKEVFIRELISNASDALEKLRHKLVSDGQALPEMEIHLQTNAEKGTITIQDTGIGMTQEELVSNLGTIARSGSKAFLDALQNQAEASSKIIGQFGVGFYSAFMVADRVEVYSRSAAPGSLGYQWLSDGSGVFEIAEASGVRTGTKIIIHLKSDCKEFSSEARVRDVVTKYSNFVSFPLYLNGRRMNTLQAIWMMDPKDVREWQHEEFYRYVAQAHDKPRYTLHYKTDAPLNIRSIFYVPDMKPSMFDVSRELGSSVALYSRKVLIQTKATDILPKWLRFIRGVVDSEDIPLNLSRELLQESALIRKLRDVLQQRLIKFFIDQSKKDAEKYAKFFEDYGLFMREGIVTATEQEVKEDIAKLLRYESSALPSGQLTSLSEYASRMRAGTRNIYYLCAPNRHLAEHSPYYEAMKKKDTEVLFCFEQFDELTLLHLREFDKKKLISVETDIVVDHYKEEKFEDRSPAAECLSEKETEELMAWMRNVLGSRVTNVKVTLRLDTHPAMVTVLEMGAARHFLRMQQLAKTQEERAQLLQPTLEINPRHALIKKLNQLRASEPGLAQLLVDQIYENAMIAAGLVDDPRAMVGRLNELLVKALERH
The conditions noted are these: read-out: TRAP-1.

The test system of test [6] is Toll-like receptor 9 (TLR9) trafficking in HEK293 cells transfected with HA-TLR9. Briefly: TLR9-trafficking assay. The conditions noted are these: 24 h treatment. The class given is cell-based, human. As for the experimental part:
TLR^9-trafficking assay (Yang, Y. et al. Heat shock protein gp96 is a master chaperone for toll-like receptors and is important in the innate function of macrophages. Immunity 26, 215-26 (2007)). HEK 293T cells were transfected with pUNO-hTLR9-HA (Invivogen) using X-tremgene HP (Roche) according to the manufacturer's instructions. At 24 hrs post-transfection, cells were split onto cell culture chamber slides (Lab-Tek). Cells were then treated for 24 hrs with indicated compound at varying concentrations. After treatment, cells were fixed for 20 min in 4% paraformaldehyde in PBS, permeabilized with 0.1% Triton-X 100 in PBS for 10 min, blocked with 3% BSA in PBS for 30 min, followed by staining for 1 hr with an anti-HA antibody (Abcam, ab9110) or a normal rabbit IgG. Cells were washed with PBS, stained with an anti-rabbit-Cy3 antibody (Invitrogen) and finally mounted in the dark at 4° C. with Prolong Gold Antifade reagent (with DAPI). Cells were visualized under a confocal microscope (Leica Upright Confocal SP5). Fluorescence intensity was quantified using MetaMorph Microscopy Automation and Image Analysis Software (Molecular Devices Inc.) and normalized to the cell number.

Test [7] concerns Hsp70 induction in HEK293 cells. The experiment in a line: Hsp70 induction in HA-TLR9 transfected HEK293 cells. The conditions noted are these: 24 h. The test is classed as cell-based, human. As for the experimental part:
Cell fractionation and immunoblotting. Cells were either treated with DMSO (vehicle) or indicated compounds for 24 hr and lysed in RIPA buffer (50 mM Tris-HCl, pH 7.4, 150 mM NaCl, 0.5% sodium deoxycholate and 0.5% NP40) supplemented with cocktail protease inhibitors (Roche) to produce whole cell lysates. Lysates for cytosol and membrane fractions were harvested using ProteoExtract Subcellular Proteome Extraction Kit (Calbiochem) following the manufacturer's instructions. Protein concentrations were determined using BCA kit (Pierce) according to the manufacturer's instructions. The protein lysates ([…]) were electrophoretically resolved by SDS-PAGE, transferred onto nitrocellulose membranes and probed with the indicated primary antibodies against: HER^2 (Zymed, 28004), Hsp70 (Stressgen, SPA-810), Grp94 (Stressgen, SPA-850), Hsp90α (Abcam, Ab2928), Hsp90β (StressMarq, SMC-107B), Grp78 (Cell Signaling, 3183), Raf-1 (Santa Cruz, sc-133), phospho-Raf-1 (Cell Signaling, 9421), MEK1/2 (Cell Signaling, 8727), phospho-MEK1/2 (Cell Signaling, 9154), ERK1/2 (Cell Signaling, 4695), phospho-ERK1/2 (Cell Signaling, 4370), AKT (Cell Signaling, 9272), GM130 (Cell Signaling, 2296), Flotillin 2 (Cell Signaling, 3436), Histone H4 (Cell Signaling, 2592), Histone H1 (Santa Cruz, sc-8030), Caspase 3 (Cell Signaling, 9665), cleaved PARP (Promega, G7341), a-tubulin (Sigma, T5168) and 3-actin (Sigma, A1978). After washing off the excess antibodies, the membranes were incubated with the corresponding horseradish peroxidase (HRP) conjugated secondary antibody. Blots were visualized by autoradiography using the Enhanced Chemiluminescence Detection System (GE Healthcare) according to manufacturer's instructions. […]
TLR^9-trafficking assay (Yang, Y. et al. Heat shock protein gp96 is a master chaperone for toll-like receptors and is important in the innate function of macrophages. Immunity 26, 215-26 (2007)). […] Fluorescence intensity was quantified using MetaMorph Microscopy Automation and Image Analysis Software (Molecular Devices Inc.) and normalized to the cell number.

Test [8] deals with Hsp70 induction and AKT degradation (cytosolic Hsp90 hallmarks) in C2C12 cells. The experiment in a line: Western blot of Hsp70 induction and AKT degradation in C2C12 cells. The class given is cell-based, mouse. The conditions noted are these: 24 hrs. For orientation: In western blotting, separated proteins are transferred to a membrane and probed.
Procedure: Cell fractionation and immunoblotting. Cells were either treated with DMSO (vehicle) or indicated compounds for 24 hr and lysed in RIPA buffer (50 mM Tris-HCl, pH 7.4, 150 mM NaCl, 0.5% sodium deoxycholate and 0.5% NP40) supplemented with cocktail protease inhibitors (Roche) to produce whole cell lysates. Lysates for cytosol and membrane fractions were harvested using ProteoExtract Subcellular Proteome Extraction Kit (Calbiochem) following the manufacturer's instructions. Protein concentrations were determined using BCA kit (Pierce) according to the manufacturer's instructions. […] After washing off the excess antibodies, the membranes were incubated with the corresponding horseradish peroxidase (HRP) conjugated secondary antibody. Blots were visualized by autoradiography using the Enhanced Chemiluminescence Detection System (GE Healthcare) according to manufacturer's instructions. For all gels 3-actin was used as a protein loading control.
Test [9] concerns PANC-1 cells. Briefly: Apoptosis assessment (Annexin V / 7AAD). The test is classed as cell-based. From the text: Annexin V Apoptosis with 7-AAD has been specifically designed for the identification of apoptotic and necrotic cells. Annexin V (or Annexin A5) is a member of the annexin family of intracellular proteins that binds to phosphatidylserine (PS) in a calcium-dependent manner. PS is normally only found on the intracellular leaflet of the plasma membrane in healthy cells, but during early apoptosis, membrane asymmetry is lost and PS translocates to the external leaflet. Fluorochrome-labeled Annexin V can then be used to specifically target and identify apoptotic cells. Annexin V binding alone cannot differentiate between apoptotic and necrotic cells. To help distinguish between the necrotic and apoptotic cells 7-amino-actinomycin D (7-AAD) is used. Early apoptotic cells will exclude 7-AAD, while late stage apoptotic cells will stain positively, due to the passage of these dyes into the nucleus where they bind to DNA. 7-AAD (7-amino-actinomycin D) has a high DNA binding constant and is efficiently excluded by intact cells. It is useful for DNA analysis and dead cell discrimination during flow cytometric analysis. When excited by 488 laser light, 7-AAD fluorescence is detected in the far red range of the spectrum (650 nm long-pass filter).
Cell cycle and apoptosis assessment. Cell cycle and apoptosis were assessed by flow cytometry after single staining with propidium iodide (PI, BD Pharmingen) or double staining with AnnexinV-FITC (BD Pharmingen) and 7AAD (BD Pharmingen), respectively. Specifically, for cell cycle analysis, cells were washed twice with cold PBS and fixed in 70% ethanol overnight at 4° C. Fixed cells were collected at 1800 rpm for 10 min and stained with PBS containing PI and DNase-free RNase A (Sigma-Aldrich) for 1 h at room temperature in the dark. DNA content was measured by BD LSRII flow cytometer and cell further analyzed using program of cell cycle analysis in FloJo (Ashland, OR). The chicken erythrocyte nuclei singlets (CEN, Biosure) were used as the reference. For apoptosis assessment, live cells were collected, washed twice with cold PBS, resuspended in Binding Buffer and stained with AnnexinV-FITC and 7AAD for 15 min at room temperature in the dark. Signals from FL1 and FL3 channels were collected by MACSQuant analyzer and further analyzed using FloJo. Early apoptosis was defined as AnnexinV+/7AAD−, and late apoptosis was observed as AnnexinV+/7AAD+.

Test [10] deals with T3, Trap-1. The conditions noted are these: for decrease in binding efficacy for Trap-1: relative to Hsp90; for loss of affinity for Trap-1: Hsp90 vs Trap-1.
For test [11], the system named is Grp94. The conditions noted are these: Hsp90 vs Grp94.
Test [12] deals with T2, Grp94. The conditions noted are these: read-out: Grp94 IC50; 43a as FP probe.
Test [13] deals with HER2 at the plasma membrane of SKBr3 cells. Briefly: Immunofluorescence of HER2 architecture at the plasma membrane. The test is classed as cell-based. How it is done: We next investigated the biological significance of the unique association of HER^2 with Grp94 at the plasma membrane of SKBr3 cells. Because the Grp94 inhibitors described here target the ATP-binding pocket of Grp94, they affect Grp94 chaperone activity. Therefore we hypothesized that Grp94 may act on HER^2 at the plasma membrane to stabilize the protein and to regulate its function.
Immunofluorescence. Cells were seeded and grown onto culture slides (BD Falcon) for 24 hrs. After washing with cold PBS, cells were fixed by treating at 4° C. for 20 min with 4% paraformaldehyde in PBS, permeabilized with 0.1% Triton X-100 in PBS containing 10% FBS for 10 min, and blocked with 2% BSA for 1 hr. After washing for four times with PBS, primary antibodies were added onto the chambers and cell were incubated overnight at 4° C., washed again with PBS followed by incubation with the secondary antibody for 1 hr at room temperature. Cell were washed and then mounted and observed under microscope (Leica Upright Confocal SP5). The primary antibodies used in the assay are against: HER^2 (Zymed, 28004), Grp94 (Stressgen, SPA-850), Hsp70 (Stressgen, SPA-810), LAMP1-FITC (Abcam, ab25406), EEA1 (Abcam, ab70521), 58K Golgi-FITC (Abcam, ab27043) and Calnexin (BD, 610523).

SMILES strings stand for the structures. Several values for one entry are separate records, joined by “and”; a condition that tells them apart may be missing. Identical values can stand only once. Entries after “also recorded” stand apart in the source; their conditions may differ. Like-named read-outs stand apart in the source and are kept apart here.

Sequence of Hsp90β (P08238 whole entry): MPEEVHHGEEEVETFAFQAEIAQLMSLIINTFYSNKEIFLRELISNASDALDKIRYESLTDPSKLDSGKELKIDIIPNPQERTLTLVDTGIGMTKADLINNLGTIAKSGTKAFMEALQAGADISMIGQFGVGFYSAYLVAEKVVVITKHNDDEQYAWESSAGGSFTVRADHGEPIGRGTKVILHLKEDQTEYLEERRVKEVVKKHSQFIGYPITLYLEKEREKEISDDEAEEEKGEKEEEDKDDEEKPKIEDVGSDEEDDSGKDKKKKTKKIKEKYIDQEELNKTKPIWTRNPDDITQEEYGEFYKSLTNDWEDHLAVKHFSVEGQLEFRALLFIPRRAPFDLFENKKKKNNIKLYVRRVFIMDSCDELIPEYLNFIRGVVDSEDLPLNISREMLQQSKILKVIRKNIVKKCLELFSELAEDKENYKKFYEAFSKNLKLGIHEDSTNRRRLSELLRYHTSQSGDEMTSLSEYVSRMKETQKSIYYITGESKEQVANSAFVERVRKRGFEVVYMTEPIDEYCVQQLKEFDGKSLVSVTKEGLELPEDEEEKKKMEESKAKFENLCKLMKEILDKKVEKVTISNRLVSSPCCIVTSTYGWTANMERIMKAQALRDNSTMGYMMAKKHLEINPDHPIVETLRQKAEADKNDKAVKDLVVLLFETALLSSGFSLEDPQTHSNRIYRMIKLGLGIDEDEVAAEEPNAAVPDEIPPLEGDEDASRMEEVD
T2 sequence (P41148 with tags, fused parts or gaps DELINS287-327GGGG): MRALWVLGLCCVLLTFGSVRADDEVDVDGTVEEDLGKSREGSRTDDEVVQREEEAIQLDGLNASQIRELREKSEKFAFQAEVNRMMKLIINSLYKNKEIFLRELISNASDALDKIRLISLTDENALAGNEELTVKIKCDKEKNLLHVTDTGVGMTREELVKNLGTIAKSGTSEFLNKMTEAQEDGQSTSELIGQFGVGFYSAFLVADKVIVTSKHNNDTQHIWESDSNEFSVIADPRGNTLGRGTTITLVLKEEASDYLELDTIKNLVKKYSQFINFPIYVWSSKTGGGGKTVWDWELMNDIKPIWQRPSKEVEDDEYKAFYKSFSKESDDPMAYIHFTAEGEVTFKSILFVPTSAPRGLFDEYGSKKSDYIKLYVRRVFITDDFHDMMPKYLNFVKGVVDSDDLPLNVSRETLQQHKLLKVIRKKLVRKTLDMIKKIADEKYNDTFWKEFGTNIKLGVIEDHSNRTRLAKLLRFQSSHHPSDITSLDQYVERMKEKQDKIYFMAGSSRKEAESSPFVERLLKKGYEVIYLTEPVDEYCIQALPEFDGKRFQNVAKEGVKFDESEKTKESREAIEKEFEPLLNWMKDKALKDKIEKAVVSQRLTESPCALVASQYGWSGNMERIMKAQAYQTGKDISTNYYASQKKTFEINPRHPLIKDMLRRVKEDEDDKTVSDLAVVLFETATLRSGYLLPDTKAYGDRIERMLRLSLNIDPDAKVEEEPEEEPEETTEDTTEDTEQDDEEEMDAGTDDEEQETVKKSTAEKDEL

`CC(C)NCCCn1c(Sc2ccc(Cl)cc2Cl)nc2c(N)ncnc21` [WS-12, 8-((2,4-Dichlorophenyl)thio)-9-(3-(isopropylamino)propyl)-9H-purin-6-amine]: the IC50 in test [1] was 20.3 ± 1.2 µM; in [2], 0.41 µM and 0.407 µM.
Turning to `C#CCCCn1c(Sc2cc(C)ccc2C)nc2c(N)ncnc21` [PU-H27], the IC50 in test [3] was above 300 µM; in test [4] it was above 300 µM; in test [5] it was 204 ± 11 µM.
On to `CC(C)NCCCn1c(Sc2cc3c(cc2I)OCO3)nc2c(N)ncnc21` [PU-H71], for which the TLR9 trafficking result in test [6] is recorded as “inhibit TLR^9 trafficking”. Moreover, in [7], the Hsp70 induction entry was “induce Hsp70”. In test [8], the AKT degradation result is reported as “degrade AKT” and the Hsp70 induction entry was “induce Hsp70”. For the same compound, the induction of apoptosis result in [9] is recorded as “very little effect”. Moreover, in test [10], the “decrease in binding efficacy for Trap-1” value is recorded as 5 fold.
As for `C#CCCCn1c(Sc2cc(Cl)c(Cl)cc2Cl)nc2c(N)ncnc21` [PU-H51], the IC50 was above 200 µM in [3], above 200 µM in test [4], 0.17 ± 0.11 µM in test [2] and 78.4 ± 8.9 µM in [5].
Regarding `CC(C)NCCCn1c(Sc2cc(Cl)cc(Cl)c2)nc2c(N)ncnc21` [WS-13, 8-((3,5-Dichlorophenyl)thio)-9-(3-(isopropylamino)propyl)-9H-purin-6-amine], the IC50 in test [1] was 27.3 ± 3.5 µM; in test [3] (read-out: Hsp90β, FP competition, 6 nM Cy3B-GM, 10 nM protein, 4° C. for 24 h), 41.8 ± 1.3 µM; in [2], 0.22 ± 0.08 µM.
Regarding `CC1(C)CC(=O)c2c(C(F)(F)F)nn(-c3ccc(C(N)=O)c(N[C@H]4CC[C@H](O)CC4)c3)c2C1` [SNX-2112], the “loss of affinity for Grp94” value in test [11] was “approximately 10 fold”.
With `CC(C)c1cc(-c2n[nH]c(=O)n2-c2ccc3c(ccn3C)c2)c(O)cc1O` [STA-9090], the IC50 in test [12] amounted to 0.01 µM.
As to `C#CCCCn1c(Sc2cc(Cl)ccc2Cl)nc2c(N)ncnc21` [PU-H42], the IC50 is 60.4 ± 1.6 µM in test [1], above 100 µM in [3], 0.53 ± 0.1 µM in test [2] and 5.1 ± 4.2 µM in test [5].
As to `C#CCCCn1c(Sc2cc(C)cc(C)c2)nc2c(N)ncnc21` [PU-H4], the IC50 in test [3] is above 300 µM; in test [4], above 300 µM; in test [2] it was 11.5 ± 0.92 µM; in [5], 158 ± 9.7 µM.
With `CS(=O)(=O)CCNCc1ccc(-c2ccc3ncnc(Nc4ccc(OCc5cccc(F)c5)c(Cl)c4)c3c2)o1` [lapatinib], the “effect on HER2 architecture at the plasma membrane” value in [13] is listed as “does not disrupt the HER^2 architecture at the plasma membrane; also recorded: No such effect was observed”.
As to `COc1c(C)cnc(Cn2cnc3c(Cl)nc(N)nc32)c1C` [BIIB021], in test [11], the “loss of affinity for Grp94” value is listed as “approximately 10 fold”. The “decrease in binding efficacy for Trap-1” value in test [10] turned out to be 5 fold.
For the compound `CN(C)c1cc2c(cc1Sc1nc3c(N)nccc3n1CCNCC(C)(C)C)OCO2` [CUDC-305/Debio092], in test [11], the “loss of affinity for Grp94” value was “approximately 10 fold”. Besides, the “loss of affinity for Trap-1” value in [10] is on record as around 2 log.
Take `C=CCNC1=C2C[C@@H](C)C[C@H](OC)[C@H](O)[C@@H](C)/C=C(\C)[C@H](OC(N)=O)[C@@H](OC)/C=C\C=C(/C)C(=O)NC(=CC1=O)C2=O` [Compound 17-AAG]: the IC50 was 0.031 µM in [12]; 1.5 µM in [10] (read-out: Trap-1 IC50, 43a as FP probe); 1.5 µM in test [10] (read-out: binding affinity (FP competition), probe 115a). The “loss of affinity for Trap-1” value in test [10] is recorded as around 2 log.
